# Data published in the supplement of paper PMC10307832.
# Columns and labels:
# Assay in all cases: relative viability (nuclei count vs DMSO), 5 days (fraction); higher = more cells survive
# Ibrutinib + Lapatinib = compound: C=CC(=O)N1CCC[C@@H](n2nc(-c3ccc(Oc4ccccc4)cc3)c3c(N)ncnc32)C1 [Ibrutinib] + CS(=O)(=O)CCNCc1ccc(-c2ccc3ncnc(Nc4ccc(OCc5cccc(F)c5)c(Cl)c4)c3c2)o1 [Lapatinib] (partner 2 µM)
# Summary of the method: (§1)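 Five library-drug doses in √10 steps were combined with a fixed anchor-drug dose, or a single drug was given alone, by pin tool to lung cancer cell lines in 1536-well plates the day after seeding. Nuclei were stained and counted after 5 days. Relative viability is the nuclei count in treated wells over that in vehicle wells, taken as the median of duplicate plates.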
# BMX-IN-1 + Linsitinib = compound: C=CC(=O)Nc1cc(-n2c(=O)ccc3cnc4ccc(-c5ccc(NS(C)(=O)=O)cc5)cc4c32)ccc1C [BMX-IN-1] + C[C@]1(O)C[C@@H](c2nc(-c3ccc4ccc(-c5ccccc5)nc4c3)c3c(N)nccn32)C1 [Linsitinib] (partner 1 µM)
# Summary of the method: as §1
# PAC-1 + Palbociclib = compound: C=CCc1cccc(/C=N/NC(=O)CN2CCN(Cc3ccccc3)CC2)c1O [PAC-1] + CC(=O)c1c(C)c2cnc(Nc3ccc(N4CCNCC4)cn3)nc2n(C2CCCC2)c1=O [Palbociclib] (partner 0.5 µM)
# Summary of the method: as §1
# PAC-1 + Decitabine = compound: C=CCc1cccc(/C=N/NC(=O)CN2CCN(Cc3ccccc3)CC2)c1O [PAC-1] + Nc1ncn([C@H]2C[C@H](O)[C@@H](CO)O2)c(=O)n1 [Decitabine] (partner 2 µM)
# Summary of the method: as §1
Cell Line,relative viability (Ibrutinib + Lapatinib; first compound 0.01581 µM),relative viability (Ibrutinib + Lapatinib; first compound 0.1581 µM),relative viability (Ibrutinib + Lapatinib; first compound 0.5 µM),relative viability (BMX-IN-1 + Linsitinib; first compound 0.02 µM),relative viability (BMX-IN-1 + Linsitinib; first compound 0.2 µM),relative viability (BMX-IN-1 + Linsitinib; first compound 0.6325 µM),relative viability (BMX-IN-1 + Linsitinib; first compound 2 µM),relative viability (PAC-1 + Palbociclib; first compound 0.02 µM),relative viability (PAC-1 + Palbociclib; first compound 0.06325 µM),relative viability (PAC-1 + Palbociclib; first compound 0.2 µM),relative viability (PAC-1 + Palbociclib; first compound 2 µM),relative viability (PAC-1 + Decitabine; first compound 0.02 µM),relative viability (PAC-1 + Decitabine; first compound 0.06325 µM),relative viability (PAC-1 + Decitabine; first compound 0.2 µM),relative viability (PAC-1 + Decitabine; first compound 2 µM),relative viability (Ibrutinib + Lapatinib; first compound 0.005 µM),relative viability (Ibrutinib + Lapatinib; first compound 0.05 µM)
NCI-H650,0.867,1,0.883,0.839,1.09,1.02,0.858,0.317,0.296,0.39,0.342,0.307,0.331,0.298,0.45,,
NCI-H460,0.892,0.94,1.11,1.04,1.07,1.45,0.777,0.148,0.162,0.129,0.248,0.436,0.424,0.242,0.451,1.18,0.96
NCI-H1666,0.583,0.749,0.761,0.872,0.891,0.797,0.595,0.605,0.643,0.676,0.632,0.721,0.763,0.713,0.713,0.722,0.814
LK-2,0.93,0.877,0.769,0.798,0.792,0.696,0.765,0.536,0.809,0.616,0.63,0.328,0.284,0.264,0.335,0.602,0.956
NCI-H2009,0.945,0.65,0.988,1.27,1.27,1.29,1.2,0.203,0.231,0.236,0.239,0.377,0.339,0.316,0.354,0.952,0.94
COR-L 105,0.402,0.314,0.337,0.801,0.875,1.01,0.877,0.367,0.402,0.379,0.461,0.63,0.71,0.707,0.696,0.36,0.368
LXF-289,0.903,0.88,0.923,0.982,1.05,1.07,1.04,0.605,0.599,0.597,0.597,0.405,0.39,0.388,0.377,0.918,0.932
HARA,0.638,0.777,0.796,1.2,1.21,0.851,0.886,0.228,0.225,0.247,0.329,0.573,0.688,0.507,0.487,0.836,0.727
NCI-H1975,0.772,0.79,0.517,1.22,1.09,1.06,0.855,0.629,0.605,0.52,0.725,0.413,0.408,0.333,0.388,0.899,0.837
UMC-11,0.978,0.87,0.907,1.1,1.23,1.13,0.998,0.339,0.322,0.371,0.277,0.668,0.681,0.265,0.68,0.545,1.1
NCI-H2023,0.711,0.818,0.868,0.798,0.695,0.769,0.726,0.343,0.353,0.355,0.33,0.216,0.217,0.182,0.182,0.622,0.772
Calu-6,1.04,1.13,,1.05,0.984,0.998,1.03,,,,,,,,,1.07,0.98
NCI-H1703,,1.16,0.684,0.945,0.666,0.712,0.746,,,,,,,,,,1.06
IA-LM,0.827,1.1,0.814,0.701,0.674,0.47,0.6,,,,,,,,,0.792,0.592
CAL-12T,0.67,0.647,0.683,0.849,0.811,0.932,1.01,0.544,0.52,0.379,0.513,,,,,0.615,0.711
ChaGo-K-1,,,,,,,,0.914,0.933,0.956,0.954,0.522,0.506,0.458,0.54,,
NCI-H2228,0.974,0.884,1.1,0.969,0.907,0.848,0.648,1.03,0.921,0.804,0.797,,,,,0.746,0.833
NCI-H2342,,,,,,,,0.531,0.561,0.54,0.564,0.791,0.705,0.704,0.733,,
NCI-H2170,0.258,0.25,0.26,,,,,0.417,0.39,0.376,0.343,0.477,0.493,0.42,0.453,0.247,0.245
NCI-H522,,,,,,,,0.866,0.984,0.962,1.11,0.607,0.641,0.614,0.697,,
NCI-H441,,,,0.594,0.705,0.499,0.696,0.194,0.266,0.26,0.2,0.256,0.258,0.171,0.23,,
NCI-H596,1.1,0.988,1.08,1.12,1.21,1.02,0.936,,,,,0.915,1,0.93,0.942,1.86,1.02
NCI-H1648,,,,,,,,0.299,0.243,0.26,0.228,0.415,0.577,0.452,0.551,,
